Measurements taken from patent publication US20090137667A1, “Pesticide Delivery System” (priority 2006, published 2009).

test: log P measured by the procedure of Donovan and Pescatore, internally standardized with toluene and triphenylene; assay type: physicochemical; conditions: measured at pH 7 (Table 22)
Experimental: Compositions of herbicides were prepared using melts of mixtures of nonionic block copolymer and ethoxylated surfactants. Specifically, tristyrylphenol etoxylate (Soprophor BSU, Rhodia) was used in combination with Pluronic P123 (PEO20-PPO69-PEO20). The list of the herbicides and corresponding log P values (the log P values were measured according procedure described by Donovan and Pescatore, J Chromatography A 2002, 952, 47-61) are presented in Table 22. All log P values were measured at pH 7, except for clethodim, measured at pH 2. First, a stock blend of Pluronic P123 and Soprophor BSU was prepared by melting together 50 g of Pluronic P123 with 50 g of Soprophor BSU at 70° C. to form a clear, homogeneous melt. Composition of the […]

Compound	Log P
Dinocap	5.43

same assay, conditions: pH 2, pH = 2; based on logP assigned to toluene 2.605 and triphenylene 6.266; read-out: logP, Average

Compound	chromatographic logP
CCOC(=O)C(Cl)Cc1cc(-n2nc(C)n(C(F)F)c2=O)c(F)cc1Cl (stereo not drawn) [Carfentrazone-ethyl]	3.99

same assay, conditions: pH 7, measured at pH 7 (Table 22); read-out: Log P

Compound	chromatographic logP
CCCN(CCC)c1c([N+](=O)[O-])cc(C(F)(F)F)cc1[N+](=O)[O-] [Trifluran]	5.08

same assay, conditions: pH 7, pH = 7; based on logP assigned to toluene 2.605 and triphenylene 6.266; read-out: logP, Average

Compound	chromatographic logP
CCOC(=O)C(Cl)Cc1cc(-n2nc(C)n(C(F)F)c2=O)c(F)cc1Cl (stereo not drawn) [Carfentrazone-ethyl]	4.02

same assay, conditions: pH = 2; based on logP assigned to toluene 2.605 and triphenylene 6.266

Compound	logP, Average
CCCN(CCC)c1c([N+](=O)[O-])cc(C(F)(F)F)cc1[N+](=O)[O-] [Trifluran]	5.108
Dinocap	5.457
Trisulfuron-methyl	3.542

same assay, conditions: pH = 7; based on logP assigned to toluene 2.605 and triphenylene 6.266

Compound	logP, Average
CCCN(CCC)c1c([N+](=O)[O-])cc(C(F)(F)F)cc1[N+](=O)[O-] [Trifluran]	5.084
Dinocap	5.428
Trisulfuron-methyl	0.510

test: Particle size of aqueous dispersions by dynamic light scattering; assay type: physicochemical; conditions: Table 14, microblend with Pluronic P123:Soprophor BSU 1:1, insecticide 4.5 mg/ml, after 2 hours, Nanotrac 250
Experimental: The suspensions were shaken for 40 h at room temperature followed by centrifugation for 10 min at 13,000 rpm. The concentration of Bifenthrin in the supernatants was determined by UV-spectroscopy. For this purpose, standard solutions containing from 0 to 0.58 mg/ml of Bifenthrin in ethanol were prepared using a stock solution of Bifenthrin in acetonitrile with concentration of 8.7 mg/ml. These solutions were used to obtain a calibration curve by measuring an absorbance at 260 nm using Perkin-Elmer Lambda 25 spectrophotometer. […]
Compositions of insecticides were prepared using melts of mixtures of nonionic block copolymer and ethoxylated surfactants. Specifically, tristyrylphenol etoxylate (Soprophor BSU, Rhodia) was used in combination with Pluronic P123 (PEO20-PPO69-PEO20). 250 mg of Pluronic P123 were mixed with 250 mg of Soprophor BSU, and 50 mg of fine powder of the insecticide, and were melted together for 1 hour. The composition of the copolymer/surfactant mixture was P123:Soprophor=1:1 by weight. The feeding copolymer/surfactant:insecticide ratio was 10:1. The melted compositions were cooled down to room temperature. […] 50 mg of the composition was rehydrated in 1 ml of water upon shaking for 1 hour. The total concentration of copolymer/surfactant components in the mixture was ca. 4.6%. The targeted content of insecticide in the microblend dispersion was 4.5 mg/ml.

Compound	Particle size (nm)
Cc1c(COC(=O)[C@@H]2[C@H](/C=C(\Cl)C(F)(F)F)C2(C)C)cccc1-c1ccccc1 (racemic) [Bifenthrin]	14
CC1(C)C(C=C(Cl)Cl)C1C(=O)OC(C#N)c1cccc(Oc2ccccc2)c1 (stereo not drawn) [Cypermethrin]	14
N#Cc1nn(-c2c(Cl)cc(C(F)(F)F)cc2Cl)c(N)c1[S+]([O-])C(F)(F)F (stereo not drawn) [Fipronil]	13
CCCSP(=O)(OCC)Oc1ccc(Br)cc1Cl (stereo not drawn) [Profenofos]	13
FC(F)(F)c1ccc(OCCCOc2c(Cl)cc(OCC=C(Cl)Cl)cc2Cl)nc1 [Pyridalyl]	14
Abamectin	13
Spinosad	13

test: Stability and appearance of aqueous dispersions on storage; assay type: physicochemical; conditions: Table 14, microblend with Pluronic P123:Soprophor BSU 1:1, storage at room temperature

Compound	Dispersion appearance in 24 hours
Cc1c(COC(=O)[C@@H]2[C@H](/C=C(\Cl)C(F)(F)F)C2(C)C)cccc1-c1ccccc1 (racemic) [Bifenthrin]	clear
CC1(C)C(C=C(Cl)Cl)C1C(=O)OC(C#N)c1cccc(Oc2ccccc2)c1 (stereo not drawn) [Cypermethrin]	clear
N#Cc1nn(-c2c(Cl)cc(C(F)(F)F)cc2Cl)c(N)c1[S+]([O-])C(F)(F)F (stereo not drawn) [Fipronil]	clear
CCCSP(=O)(OCC)Oc1ccc(Br)cc1Cl (stereo not drawn) [Profenofos]	clear
FC(F)(F)c1ccc(OCCCOc2c(Cl)cc(OCC=C(Cl)Cl)cc2Cl)nc1 [Pyridalyl]	clear
Abamectin	clear
Spinosad	clear

test: Soil mobility by soil thin layer chromatography (s-TLC); assay type: physicochemical; conditions: Example 50, 14C-bifenthrin, 10% aqueous dispersions, water eluant
Experimental: The evaluation of the soil mobility of the bifenthrin microblends according to the invention was performed using soil thin layer chromatography (s-TLC). Air-dried greenhouse topsoil, sieved to pass through with a 250 μm sieve was used to prepare s-TLC plates. Thirty mL of distilled water was added to 60 g of the sieved soil and the mixture was thoroughly grounded until a smooth, moderately fluid slurry was obtained. The soil slurry was quickly spread evenly across a clean grooved glass plate. Plates contained 9×1 cm channels cut to a depth of 2 mm, with the channels spaced 1 cm apart. Plates were allowed to dry at room temperature over 24 hours. A horizontal line was scribed 12.5 cm above the plate base through the soil layer before the soil dried completely. Bifenthrin microblends used in these experiments were prepared using a bifenthrin sample spiked with ^14C-radiolabeled bifenthrin to achieve reasonable sensitivity. Aqueous dispersions of microblends with concentrations of 10% were used in these experiments. Aliquots of each radiolabeled microblend were spotted 1.5 cm above the plate base. ^14C-labeled sulfentrazone and suspension of ^14C-labeled bifenthrin were used as controls. […]
The s-TLC were then scanned for 2 hours using a Packard InstantImager™ TLC plate scanner. Rf values were determined from the images obtained using the following equation (1): […]

Compound	Rf
Cc1c(COC(=O)[C@@H]2[C@H](/C=C(\Cl)C(F)(F)F)C2(C)C)cccc1-c1ccccc1 (racemic) [Bifenthrin]	0.00
Cc1nn(-c2cc(NS(C)(=O)=O)c(Cl)cc2Cl)c(=O)n1C(F)F [Sulfentrazone]	1.0

test: not given; conditions: as referred in The Pesticide Manual, 11th edition (Table 18); cited from earlier work

Compound	Log P
CCOC(=O)C(Cl)Cc1cc(-n2nc(C)n(C(F)F)c2=O)c(F)cc1Cl (stereo not drawn) [Carfentrazone-ethyl]	3.36
CC1(C)CON(Cc2ccccc2Cl)C1=O [Clomazone]	2.5
COC[C@H](C)N(C(=O)CCl)c1c(C)csc1C [Dimethenamid-P]	2.05
CON(C)C(=O)Nc1ccc(Cl)c(Cl)c1 [Linuron]	3.00
CCC(CC)Nc1c([N+](=O)[O-])cc(C)c(C)c1[N+](=O)[O-] [Pendimethalin]	5.18
CCCN(CCC)c1c([N+](=O)[O-])cc(C(F)(F)F)c(N)c1[N+](=O)[O-] [Prodiamine]	4.10

same assay, conditions: crude Bifenthrin; cited from earlier work

Compound	n-octanol partition coefficient, logP
Cc1c(COC(=O)[C@@H]2[C@H](/C=C(\Cl)C(F)(F)F)C2(C)C)cccc1-c1ccccc1 (racemic) [Bifenthrin]	> 6
